Each molecule was assayed against T1, SARS-associated coronavirus protease 3CL^pro (Severe acute respiratory syndrome coronavirus, UniProt P0C6U8) (assay: biochemical).
With `O=C(Oc1ccc(OC(=O)c2cc(B(O)O)cc([N+](=O)[O-])c2)cc1)c1cc(B(O)O)cc([N+](=O)[O-])c1` [FL-078, 3-Borono-5-nitrobenzoic acid 1,4-phenylene ester] the Ki was 6.7 ± 0.9 µM.
Work on `O=C(Oc1ccc(OC(=O)c2cc(B(O)O)cc([N+](=O)[O-])c2)c(Cl)c1)c1cc(B(O)O)cc([N+](=O)[O-])c1` [FL-079, 3-Borono-5-nitrobenzoic acid 2-chloro-1,4-phenylene ester] yielded a Ki of 23.7 ± 3 µM.
`O=C(Oc1c(Cl)cccc1Cl)c1cc(B(O)O)cc([N+](=O)[O-])c1` [FL-080, 3-(2,6-Dichlorophenoxycarbonyl)-5-nitrophenylboronic acid] was tested, and the Ki was 62 ± 6 µM.
`O=C(Oc1ccccc1F)c1cc(B(O)O)cc([N+](=O)[O-])c1` [FL-081, 3-(2-Fluorophenoxycarbonyl)-5-nitrophenylboronic acid] showed a Ki of 179 ± 70 µM.
For `O=C(Oc1c(F)cccc1F)c1cc(B(O)O)cc([N+](=O)[O-])c1` [FL-082, 3-(2,6-Difluorophenoxycarbonyl)-5-nitrophenylboronic acid], the Ki was 158 ± 109 µM.
For `O=C(O)c1cc(NC(=O)c2ccccc2F)cc(B(O)O)c1` [FL-083, 3-(2-Fluorobenzamido)-5-carboxylphenylboronic acid], the Ki was 104 ± 38 µM.
`O=C(Nc1cc(B(O)O)cc([N+](=O)[O-])c1)c1ccccc1F` [FL-084, 3-(2-Fluorobenzamido)-5-nitrophenylboronic acid] was tested, and the Ki was > 1000 µM.
`O=C(Oc1ccc(F)cc1)c1cc(B(O)O)cc([N+](=O)[O-])c1` [FL-085, 3-(4-Fluorophenoxycarbonyl)-5-nitrophenylboronic acid] was tested, and the Ki was 95 ± 30 µM.
In the case of `O=C(OCc1c(Cl)cccc1Cl)c1cc(B(O)O)cc([N+](=O)[O-])c1` [FL-086], the Ki is reported as > 1000 µM.
With `O=C(Oc1ccncc1)c1cc(B(O)O)cc([N+](=O)[O-])c1` [FL-087, 3-(4-pyridyloxycarbonyl)-5-nitro-phenylboronic acid] the Ki was 66 ± 2 µM.
In the case of `Nc1cc(B(O)O)cc(C(=O)O)c1` [FL-088, 3-amino-5-carboxylphenylboronic acid], the Ki is reported as 63 ± 14 µM.
`O=C(Oc1cccnc1Cl)c1cc(B(O)O)cc([N+](=O)[O-])c1` [FL-089, 3-(2-Chloro-3-pyridyloxycarbonyl)-5-nitrophenylboronic acid] was tested, and the Ki was 241 ± 85 µM.
In the case of `O=C(OC1c2ccccc2CC1Br)c1cc(B(O)O)cc([N+](=O)[O-])c1` (stereo not shown) [FL-090, 3-(2-Bromo-1-indanoxycarbonyl)-5-nitrophenylboronic acid], the Ki is reported as > 1000 µM.
In the case of `O=C(Oc1ccccc1)c1cc(B(O)O)cc([N+](=O)[O-])c1` [FL-092, 3-Phenoxycarbonyl-5-nitrophenylboronic acid], the Ki is reported as 15.5 ± 6.5 µM.
Molecule `O=C(OCc1cccc([N+](=O)[O-])c1)c1cc(B(O)O)cc([N+](=O)[O-])c1` [FL-094, 3-(3-Nitrobenzyloxycarbonyl)-5-nitrophenylboronic acid] has a Ki of 39 ± 5 µM.
For `O=C(OCc1cccc(Cl)c1)c1cc(B(O)O)cc([N+](=O)[O-])c1` [FL-095, 3-(3-Chlorobenzyloxycarbonyl)-5-nitrophenylboronic acid], the Ki was 91.8 ± 8.8 µM.
Molecule `O=C(Oc1ccccc1Br)c1cc(B(O)O)cc([N+](=O)[O-])c1` [FL-096, 3-(2-Bromophenoxycarbonyl)-5-nitro-phenylboronic acid] has a Ki of 137 ± 61 µM.
Molecule `O=C(OC(C(=O)c1ccccc1)c1ccccc1)c1cc(B(O)O)cc([N+](=O)[O-])c1` (stereo not shown) [FL-097, 3-(1-Benzoyl-1-Phenylmethoxycarbonyl)-5-nitrophenylboronic acid] has a Ki of 153 ± 58 µM.
`O=C(Oc1cccc(B(O)O)c1)c1c(Cl)cccc1Cl` [FL-099, 3-(2,6-dichlorophenylcarbonyloxy)phenyl boronic acid] was tested, and the Ki was > 1000 µM.
`O=C(Oc1cccc(B(O)O)c1)c1cc(B(O)O)cc([N+](=O)[O-])c1` [FL-100, 3-(3-Boronophenoxycarbonyl)-5-nitrophenylboronic acid] gave a Ki of 190 ± 100 µM.
In the case of `O=C(OCc1cccc(B(O)O)c1)c1cc(B(O)O)cc([N+](=O)[O-])c1` [FL-101, 3-(3-Boronobenzyloxycarbonyl)-5-nitrophenylboronic acid], the Ki is reported as 21.7 ± 3.27 µM.
`O=C(Oc1ccc(OC(=O)c2ccc(B(O)O)cc2F)c(Cl)c1)c1ccc(B(O)O)cc1F` [FL-103, 4-Borono-2-fluorobenzoic acid 2-chloro-1,4-phenylene ester] showed a Ki of 39.1 ± 2.1 µM.
In the case of `O=C(Oc1c(Cl)cccc1[N+](=O)[O-])c1ccc(B(O)O)cc1F` [FL-104, 4-(2-Chloro-6-nitrophenoxycarbonyl)-3-fluorophenylboronic acid], the Ki is reported as 18 ± 1 µM.
Work on `O=C(Oc1cccc(OC(=O)c2cc(B(O)O)cc([N+](=O)[O-])c2)c1)c1cc(B(O)O)cc([N+](=O)[O-])c1` [FL-106, 3-Borono-5-nitrobenzoic acid 1,3-phenylene ester] yielded a Ki of 8.5 ± 0.5 µM.
Molecule `O=C(Oc1c(Cl)cc(Cl)cc1[N+](=O)[O-])c1cc(B(O)O)cc([N+](=O)[O-])c1` [FL-107, 3-(2,4-Dichloro-6-nitro-phenoxycarbonyl)-5-nitro-phenylboronic acid] has a Ki of 6.9 ± 0.3 µM.
`O=C(Nc1cc(B(O)O)cc([N+](=O)[O-])c1)c1c(Cl)cccc1Cl` [FL-108, 3-(2,6-Dichlorobenzamido)-5-nitrophenylboronic acid] gave a Ki of 15 ± 7 µM.
In the case of `O=C(Nc1cc(B(O)O)ccc1Cl)c1c(Cl)cccc1Cl` [FL-109, 3-(2,6-Dichlorobenzamido)-4-chlorophenylboronic acid], the Ki is reported as 61.5 ± 19.7 µM.
`Cc1ccc(B(O)O)cc1NC(=O)c1c(Cl)cccc1Cl` [FL-110, 3-(2,6-Dichlorobenzamido)-4-methylphenylboronic acid] was tested, and the Ki was 37 ± 9.7 µM.
In the case of `O=[N+]([O-])c1cc(NS(=O)(=O)c2ccccc2)cc(B(O)O)c1` [FL-114, 3-benzenesulfonamido-5-nitrophenylboronic acid], the Ki is reported as 49.8 ± 4.4 µM.
For `O=C(Oc1cc(=O)oc2ccccc12)c1cc(B(O)O)cc([N+](=O)[O-])c1` [FL-133, 3-(4-Coumarinoxycarbonyl)-5-nitrophenylboronic acid], the Ki was > 1000 µM.
`O=C(OCc1ccccc1COC(=O)c1cc(B(O)O)cc([N+](=O)[O-])c1)c1cc(B(O)O)cc([N+](=O)[O-])c1` [FL-136, 3-Borono-5-nitrobenzoic acid 1,2-benzenedimethanol ester] showed a Ki of 8 ± 1.7 µM.
`O=C(Oc1c(Cl)cc(Cl)cc1Cl)c1cc(B(O)O)cc([N+](=O)[O-])c1` [FL-139, 3-(2,4,6-Trichlorophenoxycarbonyl)-5-nitro-phenylboronic acid] was tested, and the Ki was 73.3 ± 38 µM.
With `O=C(Oc1c(Cl)c(Cl)c(OC(=O)c2cc(B(O)O)cc([N+](=O)[O-])c2)c(Cl)c1Cl)c1cc(B(O)O)cc([N+](=O)[O-])c1` [FL-141, 3-Borono-5-nitrobenzoic acid 2,3,5,6-tetrachloro-1,4-phenylene ester] the Ki was 39.3 ± 11.7 µM.
`O=C(OCc1cccc2ccccc12)c1cc(B(O)O)cc([N+](=O)[O-])c1` [FL-148, 3-(1-Naphthalenemethoxycarbonyl)-5-nitrophenylboronic acid] showed a Ki of 21.5 ± 8.7 µM.
`O=C(OC(c1ccccc1)c1ccccc1)c1cc(B(O)O)cc([N+](=O)[O-])c1` [FL-149, 3-(1,1-Diphenylmethoxycarbonyl)-5-nitrophenylboronic acid] gave a Ki of 313 ± 170 µM.
In the case of `O=C(Oc1ccc2ccccc2c1)c1cc(B(O)O)cc([N+](=O)[O-])c1` [FL-151, 3-(2-Naphthoxycarbonyl)-5-nitrophenylboronic acid], the Ki is reported as 16.6 ± 6 µM.
With `O=C(Oc1cccc(B(O)O)c1)c1ccc(C(=O)Oc2cccc(B(O)O)c2)cc1` [FL-156, 1,4-Benzenedicarboxylic acid, di 3-boronophenyl ester] the Ki was 33 ± 9.4 µM.
`O=C(Oc1cc(OC(=O)c2cc(B(O)O)cc([N+](=O)[O-])c2)cc(OC(=O)c2cc(B(O)O)cc([N+](=O)[O-])c2)c1)c1cc(B(O)O)cc([N+](=O)[O-])c1` [FL-164, Tris-(3-borono-5-nitrobenzoic acid), 1,3,5-trihydroxybenzene ester] gave a Ki of 79.6 ± 14.1 µM.
`O=C(OCCN(CCOC(=O)c1cc(B(O)O)cc([N+](=O)[O-])c1)CCOC(=O)c1cc(B(O)O)cc([N+](=O)[O-])c1)c1cc(B(O)O)cc([N+](=O)[O-])c1` [FL-165, Tris(3-borono-5-nitrobenzoic acid), triethanolamine ester] showed a Ki of 50.6 ± 21.5 µM.
Molecule `O=C(Oc1ccc(OC(=O)c2cc(B(O)O)cc([N+](=O)[O-])c2)c2ccccc12)c1cc(B(O)O)cc([N+](=O)[O-])c1` [FL-167, 3-Borono-5-nitrobenzoic acid, 1,4-dihydroxynaphthalene ester] has a Ki of 10.2 ± 2.2 µM.
Work on `CC(C)(C)c1cc(OC(=O)c2cc(B(O)O)cc([N+](=O)[O-])c2)ccc1OC(=O)c1cc(B(O)O)cc([N+](=O)[O-])c1` [FL-169, 3-Borono-5-nitrobenzoic acid, 2-tert-butyl-1,4-phenylene ester] yielded a Ki of 32.7 ± 2.5 µM.
`CCOC(=O)[C@H](Cc1ccccc1)NC(=O)c1cc(B(O)O)cc([N+](=O)[O-])c1` [FL-170, 3-borono-5-nitrobenzoyl-L-phenylalanine ethyl ester] was tested, and the Ki was 10.6 ± 7.5 µM.
Molecule `O=C(O)c1cc(O)cc(B(O)O)c1` [FL-172, (3-carboxy-5-hydroxyphenyl)boronic acid] has a Ki of 3.5 ± 3.9 µM.
`O=C(NCc1ccccc1)c1cccc(B(O)O)c1` [FL-1010, 3-(Benzylcarbamoyl)phenylboronic acid] was tested, and the Ki was 84 ± 45 µM.
For `O=C(OCc1ccccc1)c1cc(B(O)O)cc([N+](=O)[O-])c1` [FL-1201, 3-Benzyloxycarbonyl-5-nitrophenylboronic acid], the Ki was 35.8 ± 11.5 µM.

These molecules were tested against T1, SARS-associated coronavirus protease 3CL^pro (assay: not given).
Type: binding
For `O=C(Oc1ccc(OC(=O)c2cc(B(O)O)cc([N+](=O)[O-])c2)cc1)c1cc(B(O)O)cc([N+](=O)[O-])c1` [FL-078, 3-Borono-5-nitrobenzoic acid 1,4-phenylene ester], the “ΔH (Binding Enthalpy of Selected Compounds to 3CL^pro)” value was -4.9 kcal/mol.
With `O=C(Oc1ccc(OC(=O)c2cc(B(O)O)cc([N+](=O)[O-])c2)c(Cl)c1)c1cc(B(O)O)cc([N+](=O)[O-])c1` [FL-079, 3-Borono-5-nitrobenzoic acid 2-chloro-1,4-phenylene ester] the “ΔH (Binding Enthalpy of Selected Compounds to 3CL^pro)” value was -1.7 kcal/mol.
With `O=C(Oc1cccc(OC(=O)c2cc(B(O)O)cc([N+](=O)[O-])c2)c1)c1cc(B(O)O)cc([N+](=O)[O-])c1` [FL-106, 3-Borono-5-nitrobenzoic acid 1,3-phenylene ester] the “ΔH (Binding Enthalpy of Selected Compounds to 3CL^pro)” value was -5.3 kcal/mol.
With `O=C(OCc1ccccc1COC(=O)c1cc(B(O)O)cc([N+](=O)[O-])c1)c1cc(B(O)O)cc([N+](=O)[O-])c1` [FL-136, 3-Borono-5-nitrobenzoic acid 1,2-benzenedimethanol ester] the “ΔH (Binding Enthalpy of Selected Compounds to 3CL^pro)” value was -9.2 kcal/mol.

From US20050267071A1, “Inhibitors of coronavirus protease and methods of use thereof” (Fulcrum Pharmaceuticals, Inc., priority 2003, published 2005)
